{
  "source": "patent US20140134261A1",
  "about": "(priority 2012, published 2014)",
  "key": {"μ-opiate receptor": {"molecular_target": "μ-opiate receptor (Homo sapiens, UniProt P35372)", "sequence (P35372 whole entry)": "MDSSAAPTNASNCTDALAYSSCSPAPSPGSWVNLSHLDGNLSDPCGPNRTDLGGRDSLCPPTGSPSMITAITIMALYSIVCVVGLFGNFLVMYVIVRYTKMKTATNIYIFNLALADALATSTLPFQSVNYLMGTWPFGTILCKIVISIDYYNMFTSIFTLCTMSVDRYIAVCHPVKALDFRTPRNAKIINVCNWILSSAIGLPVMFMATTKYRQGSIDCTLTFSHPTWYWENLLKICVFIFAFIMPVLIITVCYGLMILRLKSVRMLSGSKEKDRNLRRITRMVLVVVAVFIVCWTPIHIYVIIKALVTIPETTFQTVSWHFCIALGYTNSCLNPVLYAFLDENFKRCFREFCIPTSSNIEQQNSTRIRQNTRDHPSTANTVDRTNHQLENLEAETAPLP", "conditions": "cited from earlier work"}, "NF-κ-B": {"tested_on": "NF-κ-B", "conditions": "pretreatment of human myeloid ML-1a cells; cited from earlier work"}, "[1]": {"conditions": "1 mg/kg systemic, before cecal ligation and puncture, late sepsis period; cited from earlier work"}, "[2]": {"conditions": "humans, after ingestion of 26.6 mg of capsaicin; cited from earlier work"}, "[3]": {"tested_on": "PC-3 prostate cancer xenografts", "conditions": "given orally; cited from earlier work"}, "macrophages": {"tested_on": "macrophages", "conditions": "preincubation with 10 μM; cited from earlier work"}, "TRPV1 receptor": {"molecular_target": "TRPV1 receptor (Homo sapiens, UniProt Q8NER1)", "sequence (Q8NER1 whole entry)": "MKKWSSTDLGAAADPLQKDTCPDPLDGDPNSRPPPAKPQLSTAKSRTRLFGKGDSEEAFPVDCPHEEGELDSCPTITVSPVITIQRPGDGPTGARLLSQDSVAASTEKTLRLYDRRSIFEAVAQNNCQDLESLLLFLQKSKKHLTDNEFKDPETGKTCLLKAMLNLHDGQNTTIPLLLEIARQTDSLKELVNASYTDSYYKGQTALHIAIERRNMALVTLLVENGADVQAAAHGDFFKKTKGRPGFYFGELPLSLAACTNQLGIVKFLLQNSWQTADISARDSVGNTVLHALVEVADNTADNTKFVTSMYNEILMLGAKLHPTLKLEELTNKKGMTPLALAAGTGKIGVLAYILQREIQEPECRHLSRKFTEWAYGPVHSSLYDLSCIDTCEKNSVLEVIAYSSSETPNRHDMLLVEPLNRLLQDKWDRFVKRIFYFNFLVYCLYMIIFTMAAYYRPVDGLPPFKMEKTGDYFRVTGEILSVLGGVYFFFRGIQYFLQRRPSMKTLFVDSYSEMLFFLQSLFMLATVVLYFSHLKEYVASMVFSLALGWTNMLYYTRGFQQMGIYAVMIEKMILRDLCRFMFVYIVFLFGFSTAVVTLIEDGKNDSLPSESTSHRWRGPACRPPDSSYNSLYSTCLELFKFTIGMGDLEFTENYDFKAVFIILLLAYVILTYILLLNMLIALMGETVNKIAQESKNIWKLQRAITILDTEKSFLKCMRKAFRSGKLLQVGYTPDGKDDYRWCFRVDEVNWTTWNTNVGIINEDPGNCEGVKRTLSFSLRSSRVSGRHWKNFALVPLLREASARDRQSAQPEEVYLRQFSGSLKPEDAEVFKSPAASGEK", "conditions": "cited from earlier work"}, "[4]": {"tested_on": "Rat peritoneal macrophages", "conditions": "10 μM, pre-incubated 1 h; cited from earlier work"}, "[5]": {"conditions": "in vitro; cited from earlier work"}, "[6]": {"conditions": "male rats, diet with 30% lard, capsaicin at 0.14% of the diet; cited from earlier work"}, "[7]": {"tested_on": "cytochrome (CYP) enzymes present in the human liver", "conditions": "in vitro; cited from earlier work"}},
  "note": "Like-named read-outs stand apart in the source and are kept apart here.",
  "data": [
    {"molecule": "0-desmethyltramadol [Example M1]", "values": [
      {"measurement": "analgesic potency relative to the parent drug tramadol", "setting": "μ-opiate receptor", "result": "at least twice the analgesic potency"}
    ]},
    {"molecule": "COc1cc(CNC(=O)CCCCC=CC(C)C)ccc1O", "note": "[capsaicin, 8-methyl-N-vanillyl-6-nonenamide]", "values": [
      {"measurement": "TNF-mediated activation of NF-κ-B", "setting": "NF-κ-B", "result": "blocked"},
      {"measurement": "lipid peroxidation in various tissues, including lung and liver", "setting": "[1]", "result": "decreased"},
      {"measurement": "Cmax", "setting": "[2]", "result": "2.5 (0.1) ng ml^−1"},
      {"measurement": "Tmax", "setting": "[2]", "result": "47.1 (2.0) min"},
      {"measurement": "duration of pain at the site of application", "setting": "about 1 gram of 8% capsaicin ointment on forehand", "result": "~48", "unit": "h"},
      {"measurement": "burning sensation at the site of application", "setting": "about 1 gram ointment (14.25% capsaicin palmitate or 8% capsaicin) on forehand, six healthy volunteers, asked after 30 minutes", "result": "intense burning"},
      {"measurement": "duration of pain and inflammation", "setting": "application of 8% capsaicin", "result": "almost a day"},
      {"measurement": "time to intense pain at the site of application", "setting": "application of 8% capsaicin", "result": "≤ 15", "unit": "min"},
      {"measurement": "burning pain at the site of application", "setting": "topical ointment, about 14.25% capsaicin palmitate (about 8% of capsaicin) or 8% capsaicin, no topical anesthetic", "result": "intense pain"},
      {"measurement": "growth of xenografts as measured by size", "setting": "[3]", "result": "significantly slowed"},
      {"measurement": "superoxide anions, hydrogen peroxide, and nitrite radical production", "setting": "macrophages", "result": "completely inhibited"},
      {"measurement": "affinity as exogenous agonist for the TRPV1 receptor", "setting": "TRPV1 receptor", "result": "low nanomolar affinity"},
      {"measurement": "inhibition of incorporation of arachidonic acid into membrane lipids", "setting": "[4]", "result": 76, "unit": "%"},
      {"measurement": "inhibition of leukotriene B4", "setting": "[4]", "result": 46, "unit": "%"},
      {"measurement": "inhibition of leukotriene C4", "setting": "[4]", "result": 48, "unit": "%"},
      {"measurement": "inhibition of prostaglandin E2", "setting": "[4]", "result": 48, "unit": "%"},
      {"measurement": "metabolism in human skin", "setting": "[5]", "result": "quite slow"},
      {"measurement": "serum triglyceride levels versus high-fat diet without capsaicin", "setting": "[6]", "result": "significantly lower"},
      {"measurement": "metabolism by CYP enzymes in the human liver", "setting": "[7]", "result": "metabolized rapidly"}
    ]},
    {"molecule": "Palmitoyl Ester of Capsaicin USP (Formula I, R=—(CH2)14—CH3) [capsaicin palmitate]", "values": [
      {"measurement": "burning pain at the site of application", "setting": "human, in vivo", "result": "almost no burning pain"},
      {"measurement": "burning sensation at the site of application", "setting": "human, in vivo", "result": "did not cause any burning sensation"}
    ]}
  ]
}
